One assay concerns HEK-293 cells. Nature of the assay: HEK-293 growth inhibition assay (CTG). To be noted: Homo sapiens, HEK293, 72 h, 3-day treatment, CTG luminescence. Type of assay: cell-based. The procedure: Example B-4: HEK-293 Growth Inhibition Assay
HEK-293 cells (ATCC Cat #CRL-1573) are plated at 3×10^3 cells per well of a white plastic 96-well cluster plate (Thermo Scientific Nunc Cat #165306) in 200 uL DMLEM (ATCC Cat #30-2002) media with 10% FBS (Gibco Cat #26140-079). Cluster plates are returned to the incubator (37*C/5% CO2) for 24 hours prior to treatment. Compounds (200×) were added to each well in a volume of 1 uL, with serial dilutions (1:5) from 2 mM to 200 pM (final concentrations in well are 10 uM to 1 pM). Cluster plates are returned to the incubator for 3 days.
After the 3-day treatment period, 100 uL media was removed from each well by aspiration and 100 uL room temperature CTG reagent (Promega Cat #G7573) is added back to each well. The cluster plates are placed on a shaker and incubated at room temperature for 20 minutes. Following this shaking/incubation, cluster plates are read on a luminometer (BMG ClarioStar). ICs50 values are obtained by graphing the RLU data vs. compound concentration with nonlinear regression 4-parameter logistic curves (GraphPad Prism).

The test system of the next assay is VCaP cells. Nature of the assay: VCaP growth inhibition assay (CTG). The format is cell-based. As to conditions: Homo sapiens, 216 h, 30 pM R1881, 9-day treatment, CTG luminescence. As to the method: Example B-2: VCaP Growth Inhibition Assay
VCaP cells (ATCC Cat #CRL-2876) are plated at 1×10^4 cells per well of a white plastic 96-well cluster plate (Thermo Scientific Nunc Cat #165306) in 100 uL phenol red-free DMLEM (Gibco Cat #21063-029) media with […] (Omega Scientific Cat #FB-04). Cluster plates are returned to the incubator (37*C/5% CO2) for 72 hours prior to treatment. Just prior to treatment, 100 uL of phenol red-free DMEM/5% CSS and 60 pM Ri881 (Sigma Cat #R0908-10 mg) was added to each well of the cluster plates (Final R1881 concentration=30 pM). Compounds (200×) were added to each well in a volume of 1 uL, with serial dilutions (1:5) from 20 uM to 2 pM (final concentrations in well are 100 nM to 10 fMV). Cluster plates are returned to the incubator for 9 days.
After the 9-day treatment period, media was removed from the cluster plates by inversion and 100 uL room temperature CTG reagent (Promega Cat #G7573) is added to each well. The cluster plates are placed on a shaker and incubated at room temperature for 20 minutes. Following this shaking/incubation, cluster plates are read on a luminometer (BMG ClarioStar). IC50 values are obtained by graphing the RLU data vs. compound concentration with nonlinear regression 4-parameter logistic curves (GraphPad Prism).

The results in this text go back to US20250127908A1, “HETEROBIFUNCTIONAL CONDITIONAL INHIBITORS” (Kolm Therapeutics Inc., priority 2023, published 2025).

Some results are limits rather than exact numbers.

On to `CNC(=O)N1CCc2c(c(N3CCCc4cc(-c5cnn(C)c5)c(C(F)F)cc43)nn2C2CCN(C(=O)COCCOCC3CCN(CC4CCN(c5ccc([C@H]6c7ccc(O)cc7CC[C@H]6c6ccccc6)cc5)CC4)CC3)CC2)C1` [Compound 10, 3-[7-(difluoromethyl)-6-(1-methylpyrazol-4-yl)-3,4-dihydro-2H-quinolin-1-yl]-1-[1-[2-[2-[[1-[[1-[4-(6-hydroxy-2-phenyl-tetralin-1-yl)phenyl]-4-piperidyl]methyl]-4-piperidyl]methoxy]ethoxy]acetyl]-4-piperidyl]-N-methyl-6,7-dihydro-4H-pyrazolo[4,3-c]pyridine-5-carboxamide], for which the IC50 in the assay on HEK-293 cells was greater than 1000 nM; in the assay on VCaP cells it was 1 to 100 nM.

Usually IC50 stands for the concentration that inhibits the measured activity by half. Lower therefore signals inhibition by little substance.
